Columns and labels:
BI-2493 [1] = compound: T1, C[C@H]1CNCCN1c1nccc(-c2noc3c2CCC[C@@]32CCCc3sc(N)c(C#N)c32)n1 [BI-2493]; settings: 5 days
Experimental: (§1)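 PRISM pooled barcoded cancer cell line viability screen (Broad Institute) with BI-2493 at 8 doses in threefold dilutions from 0.00457 to 10 µmol/L, 5-day treatment; curves fitted per cell line. IC50 is undefined (placeholder) for resistant lines. AUC is capped at 1, and sensitivity is reported as 1 − AUC.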

BI-2493 [2] = compound: T1, BI-2493; assay: 1 - AUC of viability dose-response curve (sensitivity) (fraction); higher = more sensitive; settings: 5 days
Experimental: as §1

Test System	IC50 of cell viability (BI-2493 [1]) [µM]	1 - AUC of viability dose-response curve (BI-2493 [2])
RMUGS_OVARY	5.26	0.122
RO82W1_THYROID	5.35	0.123
RPMI7951_SKIN	6.06	0.0692
RPMI8402_HAEMATOPOIETIC_AND_LYMPHOID_TISSUE	6.85	0.0899
RT4_URINARY_TRACT	5.51	0.147
RT112_URINARY_TRACT	1.22	0.281
RVH421_SKIN	5.43	0.133
S117_THYROID	4.21	0.0998
SAOS2_BONE	9.58	0.0212
SBC5_LUNG	5.31	0.122
SCC3_HAEMATOPOIETIC_AND_LYMPHOID_TISSUE	8.83	0.0243
SCC9_UPPER_AERODIGESTIVE_TRACT	6.27	0.11
SCC25_UPPER_AERODIGESTIVE_TRACT	5.3	0.128
SCLC21H_LUNG	7.84	0.0414
SF126_CENTRAL_NERVOUS_SYSTEM	4.43	0.0902
SF295_CENTRAL_NERVOUS_SYSTEM	9.02	0.0199
SF539_CENTRAL_NERVOUS_SYSTEM	9.12	0.173
SG231_BILIARY_TRACT	2.09	0.286
SH4_SKIN	6.75	0.0518
SH10TC_STOMACH	4.52	0.125
SHMAC5_PROSTATE	3.3	0.118

Test System	IC50 of cell viability (BI-2493 [1]) [µM]	1 - AUC of viability dose-response curve (BI-2493 [2])
SIMA_AUTONOMIC_GANGLIA	> 10	0.159
SJSA1_BONE	7.93	0.095
SKES1_BONE	6.06	0.128
SKGII_ENDOMETRIUM	8.23	0.0529
SKGI_ENDOMETRIUM	4.89	0.142
SKGT2_STOMACH	9.72	0.00814
SKGT4_OESOPHAGUS	0.494	0.403
SKLMS1_SOFT_TISSUE	9.65	0.0071
SKLU1_LUNG	1	0.329
SKM1_HAEMATOPOIETIC_AND_LYMPHOID_TISSUE	0.316	0.446
SKMEL2_SKIN	9.59	0.0065
SKMEL5_SKIN	7.01	0.0596
SKMEL24_SKIN	9.18	0.157
SKMEL28_SKIN	4.05	0.217
SKMEL30_SKIN	9.15	0.0152
SKMES1_LUNG	8.98	0.0245
SKNAS_AUTONOMIC_GANGLIA	4.32	0.086
SKNBE2_AUTONOMIC_GANGLIA	4.48	0.206
SKNDZ_AUTONOMIC_GANGLIA	9.28	0.012
SKNFI_AUTONOMIC_GANGLIA	5.39	0.112

From the supplement of paper PMC11962398
